Several values for one entry are separate records, joined by “and”; a condition that tells them apart may be missing. Equal entries are not always repeated.
How the values were obtained:
HLA-E*01:01 [1] = molecular target: T1, HLA-E*01:01 (Homo sapiens, UniProt P13747, G128R); assay: HLA-E/peptide cell-surface stabilization (binding) assay, RMA-S cells transfected with HLA-E*01:01; type: cell-based; set-up: RMA-S cells expressing HLA-E*01:01 and E*01:03 were generated by transfecting the genes into the RMA-S cell line; expressed in transfected cells; host or cells: murine TAP-deficient RMA-S cells; conditions: RMA-S cells with HLA-E*01:01 and human β2-microglobulin; overnight 26 °C, peptide 1 h 26 °C, 3 h 37 °C; peptide 100 μg/ml; Index = (Sample 37 °C – No peptide 37 °C)/(Sample 26 °C – No peptide 26 °C); flow cytometry
Protocol: (§1) Binding of PM9 to both HLA-E*01:01 and –E*01:03 alleles was assessed using an HLA-E/peptide cell-surface stabilization assays. Thus, murine RMA-S cells deficient in transporter associated with antigen processing (TAP) were stably transfected with one of the two HLA-E alleles together with human β2-microglobuline. Then, stabilization of HLA-E/PM9 and HLA-E/VL9 complexes was compared in peptide-titration analyses using peptide concentrations ranging from 0.01 μg/ml to 100 μg/ml by growing transfected RMA-S cells overnight at 26 °C, pulsing them with peptide for 1 h and transferring them to 37 °C for 3 additional hours. Weak half-maximal effective concentrations (EC50) of over 100 μM were indicated for the interaction of PM9 with the two HLA-E*01:01 and E*01:03 molecules (Fig. 1A).

HLA-E*01:03 [2] = molecular target: T2, HLA-E*01:03 (Homo sapiens, UniProt P13747); assay: HLA-E/peptide cell-surface stabilization (binding) assay, RMA-S cells transfected with HLA-E*01:03; type: cell-based; set-up: RMA-S cells expressing HLA-E*01:01 and E*01:03 were generated by transfecting the genes into the RMA-S cell line; expressed in transfected cells; host or cells: murine TAP-deficient RMA-S cells; conditions: for Cell-Surface Stabilization Index E*01:03 ± SD: RMA-S cells with HLA-E*01:03 and human β2-microglobulin, overnight 26 °C, peptide 1 h 26 °C, 3 h 37 °C, peptide 100 μg/ml, Index = (Sample 37 °C – No peptide 37 °C)/(Sample 26 °C – No peptide 26 °C), mean ± SD n=3
Protocol: as §1

HLA-E*01:03 [3] = molecular target: T2, HLA-E*01:03; conditions: summary of both assays
Mamu-E*02:04 = assay: Single-chain peptide-β2-microglobulin-MHC-E trimer stabilization assay, HEK 293T cells, Mamu-E*02:04; type: cell-based, rhesus macaque (Macaca mulatta); conditions: transiently transfected HEK 293T cells; mAb 4D12
Text: (§2) The chimeric genes coding for the single-chain peptide-β2-microblobuline-MHC-E trimers were constructed as described previously. Briefly, the DNA fragment coding the tested peptide was inserted downstream of the fragment coding for the signal sequence of HLA-E*01:01 followed by coding sequences for a flexible linker [G4S]4, β2-microglobulin and the desired heavy chain of MHC-E. […] to accommodate for the flexible linker. The assembled plasmids were then transfected into HEK 293 T cells maintained between 10% and 90% confluency at 37 °C, 5% CO2 in DMEM (Life Technologies) supplemented with 10% FBS (SeraLabs), and 50 units/ml Penicillin/50 μg/ml Streptomycin (Life Technologies). Transfections were carried out in 6-well plates using GeneJuice (Millipore) as per the manufacturer’s instructions.
(§3) To further confirm PM9-interaction with the MHC-E molecules, we employed an assay based on cell-surface stabilization of single-chain peptide-β2-microblobuline-MHC-E trimers. Briefly, a DNA fragment coding for the tested peptide, here PM9, was inserted downstream of an HLA-E leader peptide and was followed by flexible [G4S]4 linker, β2-microblobuline and Y84 A point-mutated MHC-E heavy chain, which accommodated the flexible linker (Fig. 1B left). […]

HLA-E*01:03 [4] = molecular target: T2, HLA-E*01:03; assay: Single-chain peptide-β2-microglobulin-MHC-E trimer stabilization assay, HEK 293T cells, HLA-E*01:03; type: cell-based; set-up: expressed in transfected cells; conditions: transiently transfected HEK 293T cells; mAb 3D12; compared with VL9 and irrelevant peptide
Text: as §2
To further confirm PM9-interaction with the MHC-E molecules, we employed an assay based on cell-surface stabilization of single-chain peptide-β2-microblobuline-MHC-E trimers. Briefly, a DNA fragment coding for the tested peptide, here PM9, was inserted downstream of an HLA-E leader peptide and was followed by flexible [G4S]4 linker, β2-microblobuline and Y84 A point-mutated MHC-E heavy chain, which accommodated the flexible linker (Fig. 1B left). […] From these experiments, we concluded that the PM9 peptide bound to HLA-E molecules, and stabilized and increased the HLA-E expression on the cell surface.
Fig. 2 Identification of HLA-E-binding peptides in a single-chain trimer stabilization assay. A single chain peptide-β2-microglobuline-MHC-E heavy chain trimer stabilization assay was employed to determine the candidate 9-mer peptide binding to HLA-E*01:03 (brown line) and compared to that induced by VL9 (yellow area) and irrelevant (pink area) peptide. Expression of trimer on transiently transfected into HEK 293T cells was assessed using a […] 3D12 mAb in flow cytometry. Please see gating strategy in Fig. S3.

HLA-E*01:01 [5] = molecular target: T1, HLA-E*01:01; assay: Single-chain peptide-β2-microglobulin-MHC-E trimer stabilization assay, HEK 293T cells, HLA-E*01:01; type: cell-based; set-up: expressed in transfected cells; conditions: transiently transfected HEK 293T cells; mAb 3D12
Text: as §2, §3

Sequence	Cell-Surface Stabilization Index E*01:01 (HLA-E*01:01 [1])	Cell-Surface Stabilization Index E*01:03 ± SD (HLA-E*01:03 [2])	also measured
GHQAAMQMLKDTINE	0.27	0.455 ± 0.033	–
GHQAAMQMLKETINE [C032, tHIVconsvX 15-mer peptide […]]	0.16	0.480 ± 0.057	–
INEEAAEWDRLHPVH [C038, tHIVconsvX 15-mer peptide […]]	0.20	0.389 ± 0.039	–
INEEAAEWDRVHPVH [C037, tHIVconsvX 15-mer peptide […]]	0.30	0.419 ± 0.031	–
IVRMYSPTSILDIKQ	0.03	0.518 ± 0.033	–
NEEAAEWDR [NR9]	–	–	HLA-E binder classification across the SCT assay and the LCL721.221-HLA-E*01:03 assay (MFI over 4000) (HLA-E*01:03 [3]): positive stabilization signal in at least one of the two employed assays
PQDLNMMLNIVGGHQ [C026, tHIVconsvX 15-mer peptide […]]	0.25	0.429 ± 0.037	–
PQDLNTMLNTVGGHQ [C025, tHIVconsvX 15-mer peptide […]]	0.32	0.431 ± 0.038	–
QMAVFIHNF [QF9]	–	–	HLA-E binder classification across the SCT assay and the LCL721.221-HLA-E*01:03 assay (MFI over 4000) (HLA-E*01:03 [3]): positive stabilization signal in at least one of the two employed assays
QMAVFIHNFKRKGGI [C352, tHIVconsvX 15-mer peptide […]]	0.26	0.641 ± 0.051	–
QMAVLIHNFKRRGGI [C353, tHIVconsvX 15-mer peptide […]]	0.17	0.632 ± 0.065	–
SALSEGATPQDLNMM [C022, tHIVconsvX 15-mer peptide […]]	0.14	0.382 ± 0.027	–
TEEKIKALTEICKEM [C182, tHIVconsvX 15-mer peptide […]]	0.33	0.463 ± 0.085	–
TVCVIWCIH [TH9, reference compound]	–	–	Mamu-E*02:04 single-chain trimer surface expression (MFI) relative to non-binding peptide (Mamu-E*02:04): non-binding; HLA-E*01:03 single-chain trimer surface stabilization (HLA-E*01:03 [4]): non-binding; HLA-E*01:01 single-chain trimer surface expression (MFI) relative to non-binding peptide (HLA-E*01:01 [5]): non-binding
VMAPRTLVL [VL9, reference compound]	–	–	Cell-Surface Stabilization Index E*01:03/VL9 (HLA-E*01:03 [2]; VL9 (VMAPRTLVL) positive control of the experimental day, RMA-S cells with HLA-E*01:03): 2.572 and 2.369 and 2.600 and 2.281
VYYRDSRDPIWKGPA [C376, tHIVconsvX 15-mer peptide […]]	0.22	0.366 ± 0.044	–
VYYRDSRDPLWKGPA [C377, tHIVconsvX 15-mer peptide […]]	0.17	0.353 ± 0.039	–
YFSVPLDESFRKYTA [C226, tHIVconsvX 15-mer peptide […]]	−0.15	0.669 ± 0.010	–
YFSVPLDKDFRKYTA [C227, tHIVconsvX 15-mer peptide […]]	0.21	0.618 ± 0.042	–

Reference: PMC6291738, “Identification of novel HIV-1-derived HLA-E-binding peptides” (Immunology Letters, 2018)
